Measurements reported in US20230365554A1, “SUBSTITUTED PYRROLO-PYRIDINONE DERIVATIVES AND THERAPEUTIC USES THEREOF” (The Broad Institute, Inc., priority 2020, published 2023).
pIC50: −log10 of the molar value. “And” between values parts separate entries of the source, which are not always exact repeats. Identical values can stand only once.

Assays:
[1] = target: wild-type Epidermal Growth Factor Receptor (EGFR) (Homo sapiens (Human), UniProt P00533); experiment: WT-EGFR kinase assay (TR-FRET, 2 mM ATP); type: biochemical; details: median or individual measurements, Table 3, read-out: EGFR Wildtyp-2mM ATP IC50 [mol/l] (median)
Description: Inhibitory activity of compounds of the present invention against wild-type Epidermal Growth Factor Receptor (EGFR) was quantified employing the TR-FRET based EGFR assay as described in the following paragraphs.
Recombinant fusion protein of N-terminal Glutathion-S-Transferase (GST) and a fragment of human EGFR (amino acids R669 to A1210), expressed in Sf9 insect cells and purified via affinity chromatography using Glutathion Sepharose as described above, was used as kinase. As substrate for the kinase reaction the biotinylated peptide biotin-Ahx-AEEEEYFELVAKKK (C-terminus in amide form) was used which can be purchased e.g. form the company Biosynthan GmbH (Berlin-Buch, Germany).
For the assay 50 nl of a 100 fold concentrated solution of the test compound in DMSO was pipetted into either a black low volume 384 well microtiter plate or a black 1536 well microtiter plate (both Greiner Bio-One, Frickenhausen, Germany), 2 μL of a solution of EGFR in aqueous assay buffer [50 mM Hepes pH 7.0, 10 mM MgCl2, 1 mM dithiothreitol, 0.5 mM EGTA, 0.3 mM activated sodium ortho-vanadate, 0.005% (w/v) bovine serum albumin, 0.005% (v/v) Tween-20] were added and the mixture was incubated for 15 min at 22° C. to allow pre-binding of the test compounds to the enzyme before the start of the kinase reaction. Then the kinase reaction was started by the addition of 3 μL of a solution of adenosine-tri-phosphate (ATP, 3.33 mM=>final conc. in the 5 μL assay volume is 2 mM) and substrate (1.67 μM=>final conc. in the 5 μL assay volume is 1 μM) in assay buffer and the resulting mixture was incubated for a reaction time of 30 min at 22° C. The concentration of EGFR was adjusted depending of the activity of the enzyme lot and was chosen appropriate to have the assay in the linear range, typical concentration was 7.6 pg/μL. The reaction was stopped by the addition of 3 μL of a solution of HTRF detection reagents (83.3 nM streptavidine-XL665 [Cisbio Bioassays, Codolet, France] and 1.67 nM PT66-Tb-Cryptate, a terbium-cryptate labelled anti-phospho-tyrosine antibody from Cisbio Bioassays [instead of the PT66-Tb-cryptate PT66-Eu-Chelate from Perkin Elmer can also be used]) in an aqueous EDTA-solution (133.3 mM EDTA, 0.2% (w/v) bovine serum albumin in 50 mM HEPES pH 7.5).
The resulting mixture was incubated 1 h at 22° C. to allow the binding of the biotinylated phosphorylated peptide to the streptavidine-XL665 and the PT66-Tb-Cryptate. Subsequently the amount of phosphorylated substrate was evaluated by measurement of the resonance energy transfer from the PT66-Tb-Cryptate to the streptavidine-XL665. Therefore, the fluorescence emissions at 620 nm and 665 nm after excitation at 337 nm were measured in a HTRF reader, e.g. a Pherastar (BMG Labtechnologies, Offenburg, Germany) or a Viewlux (Perkin-Elmer). The ratio of the emissions at 665 nm and at […] was taken as the measure for the amount of phosphorylated substrate. The data were normalised (enzyme reaction without inhibitor=0% inhibition, all other assay components but no enzyme=100% inhibition).

human CSNK1A1 = human CSNK1A1 (Homo sapiens (Human), UniProt P48729); experiment: CSNK1A1 Assay 2 (ADP-Glo, 1 μM ATP); type: biochemical; details: median, Table 2, read-out: CSNK1A1 Assay 2 IC50 [mol/l] (median)
Description: CSNK1A1-inhibitory activity of compounds of the present invention in presence of 1 μM adenosine-tri-phosphate (ATP) was quantified employing the CSNK1A1 assay as described in the following paragraphs. In essence, the enzyme activity is measured by quantification of the adenosine-di-phosphate (ADP), which is generated as a co-product of the enzyme reaction, via the “ADP-Glo™ Kinase Assay” kit from the company Promega. This detection system works as follows: In a first step the ATP not consumed in the kinase reaction is quantitatively converted to cAMP employing an adenylate cyclase (“ADP-Glo-reagent”), then the adenylate cyclase is stopped and the ADP generated in the kinase reaction converted to ATP which generates in a luciferase-based reaction a glow-luminescence signal (“Kinase Detection Reagent”).
Recombinant fusion protein of N-terminal Glutathion-S-Transferase (GST) and full-length human CSNK1A1, expressed by baculovirus infected insect cells and purified via Glutathion affinity chromatography, was purchased from Life Technologies (product no. PV4174) and used as enzyme. As substrate for the kinase reaction the biotinylated peptide biotin-Ahx-KRRRAL-pS-VASLPGL (C-terminus in amide form) was used which can be purchased e.g. from the company Biosyntan (Berlin-Buch, Germany).
For the assay 50 nl of a 100 fold concentrated solution of the test compound in DMSO was pipetted into a white 1536-well microtiter plate (Greiner Bio-One, Frickenhausen, Germany), 2 μL of a solution of CSNK1A1 in aqueous assay buffer [50 mM HEPES pH 7.5, 10% (v/v) glycerol, 10 mM MgCl2, 50 mM NaCl, 1 mM dithiothreitol, 0.01% (w/v) bovine serum albumin, 0.01% (v/v) Triton X-100] were added and the mixture was incubated for 15 min at 22° C. to allow pre-binding of the test compounds to the enzyme before the start of the kinase reaction. Then the kinase reaction was started by the addition of 3 μL of a solution of ATP (1.67 μM=>final conc. in the 5 μL assay volume is 1 μM) and peptide substrate (50 μM=>final conc. in the 5 μL assay volume is 30 μM) in assay buffer and the resulting mixture was incubated for a reaction time of 30 min at 22° C. The concentration of CSNK1A1 was adjusted depending of the activity of the enzyme lot and was chosen appropriate to have the assay in the linear range, a typical concentrations are about 0.0375 ng/μL. The reaction was stopped by the addition of 2.5 μL of “ADP-Glo-reagent” (1:1.5 fold diluted with water) and the resulting mixture was incubated at 22° C. for 1 h to convert the ATP not consumed in the kinase reaction completely […]. Subsequently 2.5 μL of the “kinase detection reagent” (1.2 fold more concentrated than recommended by the producer) were added, the resulting mixture was incubated at 22° C. for 1 h and then the luminescence measured with a suitable measurement instrument (e.g. Viewlux™ from Perkin-Elmer). The amount of emitted light was taken as a measure for the amount of ADP generated and thereby for the activity of the CSNK1A1.
The data were normalised (enzyme reaction without inhibitor=0% inhibition, all other assay components but no enzyme=100% inhibition).

Chain of wild-type Epidermal Growth Factor Receptor (EGFR) (P00533 669-1210): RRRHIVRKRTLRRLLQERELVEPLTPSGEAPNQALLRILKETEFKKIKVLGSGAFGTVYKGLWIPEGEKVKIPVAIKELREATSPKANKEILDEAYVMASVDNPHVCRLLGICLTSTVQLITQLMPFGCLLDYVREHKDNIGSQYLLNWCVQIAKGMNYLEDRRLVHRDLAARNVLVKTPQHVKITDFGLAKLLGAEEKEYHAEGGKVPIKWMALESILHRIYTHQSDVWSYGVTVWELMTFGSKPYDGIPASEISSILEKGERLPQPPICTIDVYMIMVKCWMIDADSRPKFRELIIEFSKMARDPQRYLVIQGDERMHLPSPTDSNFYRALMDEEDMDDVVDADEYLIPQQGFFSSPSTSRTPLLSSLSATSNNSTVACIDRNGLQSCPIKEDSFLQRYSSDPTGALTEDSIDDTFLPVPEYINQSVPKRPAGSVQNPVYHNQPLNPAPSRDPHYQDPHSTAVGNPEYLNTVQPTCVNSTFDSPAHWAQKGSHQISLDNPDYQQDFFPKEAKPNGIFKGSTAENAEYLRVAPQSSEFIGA
Chain of human CSNK1A1 (P48729 whole entry): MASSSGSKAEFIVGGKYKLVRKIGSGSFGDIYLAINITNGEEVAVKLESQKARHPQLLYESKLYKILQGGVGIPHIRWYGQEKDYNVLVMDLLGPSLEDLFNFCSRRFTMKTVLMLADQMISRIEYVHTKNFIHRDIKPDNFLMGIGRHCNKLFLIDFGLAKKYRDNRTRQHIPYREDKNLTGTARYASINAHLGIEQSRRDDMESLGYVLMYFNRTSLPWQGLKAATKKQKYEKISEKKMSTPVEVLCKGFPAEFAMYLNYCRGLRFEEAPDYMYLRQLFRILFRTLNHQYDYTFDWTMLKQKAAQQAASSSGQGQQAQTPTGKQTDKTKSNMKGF

SMILES | pIC50 [1] | pIC50 (human CSNK1A1) | IC50 [1]
CN1CC(CC(F)(F)F)c2[nH]c(-c3ccnc(NC(=O)C(CC(F)F)c4ccc(F)cc4)c3)c(Nc3cscn3)c2C1=O (racemic) [Example 52, (2RS)-4,4-difluoro-2-(4-fluorophenyl)-N-{4-[(7RS)-5-methyl-4-oxo-3-[(1,3-thiazol-4-yl)amino]-7-(2,2,2-trifluoroethyl)-4,5,6,7-tetrahydro-1H-pyrrolo[3,2-c]pyridin-2-yl]pyridin-2-yl}butanamide] | < 4.70 | 8.10 | 
CCC1CNC(=O)c2c1[nH]c(-c1ccnc(NC(=O)Cc3ccc(F)cc3)c1)c2Nc1ccccc1 (single isomer, unassigned) [Example 2, N-{4-[3-anilino-7-ethyl-4-oxo-4,5,6,7-tetrahydro-1H-pyrrolo[3,2-c]pyridin-2-yl]pyridin-2-yl}-2-(4-fluorophenyl)acetamide] | 6.72 | 8.48 | 
CCC1CNC(=O)c2c1[nH]c(-c1ccnc(NC(=O)Cc3ccc(F)cc3)c1)c2Nc1ccccc1 (single isomer, unassigned) [Example 3, N-{4-[3-anilino-7-ethyl-4-oxo-4,5,6,7-tetrahydro-1H-pyrrolo[3,2-c]pyridin-2-yl]pyridin-2-yl}-2-(4-fluorophenyl)acetamide] | 6.49 | 8.42 | 
Cc1cn(C)c(=O)c2c(Nc3ccccc3)c(-c3ccnc(NC(=O)C(CC(F)F)c4ccc(F)cc4)c3)[nH]c12 (single isomer, unassigned) [Example 12, N-[4-(3-anilino-5,7-dimethyl-4-oxo-4,5-dihydro-1H-pyrrolo[3,2-c]pyridin-2-yl)pyridin-2-yl]-4,4-difluoro-2-(4-fluorophenyl)butanamide] | < 4.70 | 6.74 | 
Cc1cn(C)c(=O)c2c(Nc3ccccc3)c(-c3ccnc(NC(=O)C(CC(F)F)c4ccc(F)cc4)c3)[nH]c12 (single isomer, unassigned) [Example 13, N-[4-(3-anilino-5,7-dimethyl-4-oxo-4,5-dihydro-1H-pyrrolo[3,2-c]pyridin-2-yl)pyridin-2-yl]-4,4-difluoro-2-(4-fluorophenyl)butanamide] | < 4.70 | 7.72 | 
CN1CC(CC(F)(F)F)c2[nH]c(-c3ccnc(NC(=O)Cc4ccc(F)cc4)c3)c(Nc3ccccc3)c2C1=O (single isomer, unassigned) [Example 15, N-{4-[3-anilino-5-methyl-4-oxo-7-(2,2,2-trifluoroethyl)-4,5,6,7-tetrahydro-1H-pyrrolo[3,2-c]pyridin-2-yl]pyridin-2-yl}-2-(4-fluorophenyl)acetamide] | 5.54 | 8.03 | 
CN1CC(CC(F)(F)F)c2[nH]c(-c3ccnc(NC(=O)Cc4ccc(F)cc4)c3)c(Nc3ccccc3)c2C1=O (single isomer, unassigned) [Example 16, N-{4-[3-anilino-5-methyl-4-oxo-7-(2,2,2-trifluoroethyl)-4,5,6,7-tetrahydro-1H-pyrrolo[3,2-c]pyridin-2-yl]pyridin-2-yl}-2-(4-fluorophenyl)acetamide] | 5.74 | 8.37 | 
CN1CC(CC2CC2)c2[nH]c(-c3ccnc(NC(=O)Cc4ccc(F)cc4)c3)c(Nc3ccccc3)c2C1=O (single isomer, unassigned) [Example 19, N-{4-[3-anilino-7-(cyclopropylmethyl)-5-methyl-4-oxo-4,5,6,7-tetrahydro-1H-pyrrolo[3,2-c]pyridin-2-yl]pyridin-2-yl}-2-(4-fluorophenyl)acetamide] | 5.74 | 8.41 | 
CN1CC(CC2CC2)c2[nH]c(-c3ccnc(NC(=O)Cc4ccc(F)cc4)c3)c(Nc3ccccc3)c2C1=O (single isomer, unassigned) [Example 20, N-{4-[3-anilino-7-(cyclopropylmethyl)-5-methyl-4-oxo-4,5,6,7-tetrahydro-1H-pyrrolo[3,2-c]pyridin-2-yl]pyridin-2-yl}-2-(4-fluorophenyl)acetamide] | 5.10 | 7.77 | 
C[C@H](C(=O)Nc1cc(-c2[nH]c3ccn(C)c(=O)c3c2Nc2ccccc2)ccn1)c1ccc(F)cc1 (single isomer, unassigned) [Example 26] | < 4.70 | 8.23 | 
C[C@@H](C(=O)Nc1cc(-c2[nH]c3ccn(C)c(=O)c3c2Nc2ccccc2)ccn1)c1ccc(F)cc1 (single isomer, unassigned) [Example 27] | < 4.70 | 7.68 | 
Cn1ccc2[nH]c(-c3ccnc(NC(=O)C(CC(F)F)c4ccc(F)cc4)c3)c(Nc3ccccc3)c2c1=O (single isomer, unassigned) [Example 29, N-[4-(3-anilino-5-methyl-4-oxo-4,5-dihydro-1H-pyrrolo[3,2-c]pyridin-2-yl)pyridin-2-yl]-4,4-difluoro-2-(4-fluorophenyl)butanamide] | < 4.70 | 7.30 | 
Cn1ccc2[nH]c(-c3ccnc(NC(=O)C(CC(F)F)c4ccc(F)cc4)c3)c(Nc3ccccc3)c2c1=O (single isomer, unassigned) [Example 30, N-[4-(3-anilino-5-methyl-4-oxo-4,5-dihydro-1H-pyrrolo[3,2-c]pyridin-2-yl)pyridin-2-yl]-4,4-difluoro-2-(4-fluorophenyl)butanamide] |  | 8.43 | > 20 µM (2×) and 3.9 µM and 5.1 µM and 5.5 µM and 7.2 µM and 15 µM and 10 µM
Cn1cc(CC(F)(F)F)c2[nH]c(-c3ccnc(NC(=O)C(CC(F)F)c4ccc(F)cc4)c3)c(Nc3ccccc3)c2c1=O (single isomer, unassigned) [Example 36, N-{4-[3-anilino-5-methyl-4-oxo-7-(2,2,2-trifluoroethyl)-4,5-dihydro-1H-pyrrolo[3,2-c]pyridin-2-yl]pyridin-2-yl}-4,4-difluoro-2-(4-fluorophenyl)butanamide] | 5.96 | 8.21 | 
